Results as given in PubChem BioAssay (NCI).
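Five concentrations, 48 hours, 96-well plates. Abbreviation: GI50, concentration required for 50% inhibition of growth. TGI denotes the concentration required for complete inhibition of growth.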

Experiments:
Assay in all cases: NCI anticancer screen, dose series, 48 h
[1] = system: 786-0 renal
[2] = system: A498 renal
[3] = system: A549 NSCLC
[4] = system: ACHN renal
[5] = system: BT-549 breast
[6] = system: CAKI-1 renal
[7] = system: CCRF-CEM leukemia
[8] = system: DU-145 prostate
[9] = system: EKVX NSCLC
[10] = system: HCC-2998 colon
[11] = system: HCT-116 colon
[12] = system: HCT-15 colon
[13] = system: HL-60(TB) leukemia
[14] = system: HOP-62 NSCLC
[15] = system: HS 578T breast
[16] = system: HT29 colon
[17] = system: IGROV1 ovarian
[18] = system: K-562 leukemia
[19] = system: KM12 colon
[20] = system: LOX IMVI melanoma
[21] = system: M14 melanoma
[22] = system: MALME-3M melanoma
[23] = system: MCF7 breast
[24] = system: MDA-MB-231 breast
[25] = system: MDA-MB-435
[26] = system: MOLT-4 leukemia
[27] = system: NCI-H226 lung
[28] = system: NCI-H23 lung

With `COc1cc(-c2nnc(SCc3ccc(O)c4ncccc34)n2-c2ccccc2)cc(OC)c1OC` the GI50 [1] was 498 nM, the TGI [1] was over 20900 nM and the GI50 [2] was 320 nM. The TGI [2] was 2320 nM, the GI50 [3] was 412 nM and the TGI [3] was over 100000 nM. For the same compound, the GI50 [4] was 285 nM, the TGI [4] was over 100000 nM and the GI50 [5] was 178 nM. For the same compound, the TGI [5] was over 26000 nM, the GI50 [6] was 274 nM and the TGI [6] was over 100000 nM. For the same compound, the GI50 [7] was 188 nM, the TGI [7] was over 100000 nM and the GI50 [8] was 273 nM. For the same compound, the TGI [8] was over 100000 nM, the GI50 [9] was 367 nM and the TGI [9] was over 100000 nM. For the same compound, the GI50 [10] was 447 nM, the TGI [10] was over 100000 nM and the GI50 [11] was 97.9 nM. It also gave a TGI [11] of over 40300 nM, a GI50 [12] of 53 nM and a TGI [12] of over 100000 nM. The GI50 [13] was 276 nM, the GI50 [14] was 261 nM and the GI50 [15] was 161 nM. For the same compound, the GI50 [16] was 2040 nM, the TGI [16] was over 100000 nM and the GI50 [17] was 272 nM. For the same compound, the TGI [17] was over 100000 nM, the GI50 [18] was 83 nM and the TGI [18] was over 100000 nM. It also gave a GI50 [19] of 336 nM, a TGI [19] of over 100000 nM and a GI50 [20] of 180 nM. For the same compound, the TGI [20] was 4440 nM, the GI50 [21] was 386 nM and the TGI [21] was 2420 nM. It also gave a GI50 [22] of 336 nM, a TGI [22] of over 20600 nM and a GI50 [23] of 37.7 nM. The TGI [23] was over 100000 nM, the GI50 [24] was 390 nM and the TGI [24] was over 100000 nM. For the same compound, the GI50 [25] was 194 nM, the TGI [25] was over 100000 nM and the GI50 [26] was 294 nM. The TGI [26] was over 100000 nM, the GI50 [27] was 359 nM and the TGI [27] was over 100000 nM. The GI50 [28] was 75.7 nM.
